Measured values from US5961482A, “Iontotherapeutic device and process and iontotherapeutic unit dose” (Rutgers, The State University Of New Jersey, priority 1996, dated 1999).
Several values for one entry are separate records, joined by “and”; a condition that tells them apart may be missing. Equal entries are not always repeated.

Experiments:
[1] = In vitro skin permeation of vasopressin, Valia-Chien cell, H^3-vasopressin scintillation counting; assay type: in vitro ADME, hairless rat; conditions: for Enhancement factor: vs passive diffusion (1.32 ng/cm^2 /hr)
Protocol: (§1) An aqueous buffer solution of vasopressin (50 mcg/ml containing 1.7 mcCi/ml H^3 -vasopressin) is prepared in citrate-phosphate buffer at pH 5.0. An aliquot of 3.5 ml of this vasopressin solution is filled into the refillable dosage unit having a microporous membrane as the drug-releasingsurface. The dosage unit is then assembled as a part of the pharmaceutical reservoir electrode of the iontotherapeutic device and membrane surface thereof is applied to the stratum corneum side of hairless rat skin mounted in the Valia-Chien skin permeation cell at 37° C. Samples are withdrawn at regular intervals and radioactivity is measured by scintillation counter to determine the amount of vasopressin which has been transdermally absorbed.
as §1, with “aqueous buffered” for “aqueous buffer”, “pH 7.4 with varying ionic strengths.” for “pH 5.0.”, “the drug-releasing surface.” for “the drug-releasingsurface.”, “regular time” for “regular”
as §1, with “aqueous buffered” for “aqueous buffer”, “pH 5.0 at ionic strength of 0.064.” for “pH 5.0.”, “the drug-releasing surface.” for “the drug-releasingsurface.”, “regular time” for “regular”

[2] = tested on: urine osmolarity in anesthetized rabbits; assay: Urine osmolarity / urine output in anesthetized rabbits; assay type: in vivo
Protocol: An aqueous buffer solution of vasopressin (40 IU/ml) is prepared in citrate-phosphate buffer at pH 5.0. Vasopressin is an anti-diuretic pharmaceutical, which is used by patients which have an excessive urine output. Vasopressin caused a reduction of urine output and an increase in ion content, such as sodium ion content. Ion content in the urine is determined by using osmolarity measurement. An aliquot of 3.5 ml of this vasopressin solution is filled into the refillable dosage unit having a microporous membrane as the drug-releasing surface. The dosage unit is then assembled as a part of the pharmaceutical reservoir electrode of the iontotherapeutic device and membrane surface thereof is applied to the abdominal skin of 2 groups of anesthetized rabbits. Blood samples are withdrawn and urine samples are collected at regular time intervals and urine osmolarity is measured by osmometer. The increases in osmolarity from the basal level are the pharmacodynamic responses to the vasopressin transdermally absorbed.

[3] = In vitro skin permeation of vasopressin, Valia-Chien cell, H^3-vasopressin scintillation counting; assay type: in vitro ADME, hairless rat; conditions: pH 7.4
[4] = TPIS 0.3 mA, 16 KHz, on/off 1/1, 60 min, pH 5.0, ionic strength 0.064

NC(=O)CC[C@@H]1NC(=O)[C@H](Cc2ccccc2)NC(=O)[C@H](Cc2ccc(O)cc2)NC(=O)[C@@H](N)CSSC[C@@H](C(=O)N2CCC[C@H]2C(=O)N[C@@H](CCCN=C(N)N)C(=O)NCC(N)=O)NC(=O)[C@H](CC(N)=O)NC1=O [Vasopressin, vasopressin]
Skin Permeation Rate ([1]; NO TPIS, 0.0 mA (passive diffusion), pH 5.0, X ± SD): 0.94±0.62 ng/cm^2 hr and 0.94 (±0.62) ng/cm^2 hr
Skin Permeation Lag Time ([1]; NO TPIS, 0.0 mA, pH 5.0, X ± SD): 9.12 (±1.06) hours
time after TPIS treatment for skin permeability to return to the rate before treatment ([1]; TPIS 0.3 mA, 16 KHz, 60 min, pH 5.0, ionic strength 0.064): less than 2 hours
Skin Permeation Rate [1, 4]: 757.3 (±53.2) ng/cm^2 /hr
duration of time lag [1, 4]: 0.40 (±0.06) hours
Skin Permeation Rate ([1]; TPIS 0.5 mA, 2 KHz, on/off 1/1, pH 7.4, ionic strength 0.122, ± SD): 244.6 (±26.3) ng/cm^2 /hr
Skin Permeation Rate ([1]; TPIS 0.5 mA, 2 KHz, on/off 1/1, pH 7.4, ionic strength 0.488, ± SD): 65.9 (±13.1) ng/cm^2 /hr
Skin Permeation Lag Time ([1]; With TPIS, activation phase, 0.5 mA, 2 KHz, on/off 1/1, 10 min per 40 min, pH 5.0): < 0.5 h
Skin Permeation Rate ([1]; With TPIS, activation phase, 0.5 mA, 2 KHz, on/off 1/1, 10 min per 40 min, pH 5.0, X ± SD): 116.2 (±10.7) ng/cm^2 hr
Skin Permeation Lag Time ([1]; With TPIS, activation phase, 1.0 mA, 2 KHz, on/off 1/1, 10 min per 40 min, pH 5.0): < 0.5 h
Skin Permeation Rate ([1]; With TPIS, activation phase, 1.0 mA, 2 KHz, on/off 1/1, 10 min per 40 min, pH 5.0, X ± SD): 178.0 (±25) ng/cm^2 hr
duration of time lag ([1]; passive diffusion, pH 5.0, ionic strength 0.064): 9 h
Skin Permeation Rate ([1]; passive diffusion, pH 5.0, ionic strength 0.064, 30 hours): 0.98±0.26 ng/cm^2 /hr
Skin Permeation Rate ([1]; post-activation phase (0.0 mA) after 0.5 mA TPIS, pH 5.0, X ± SD): 0.7 (±0.4) ng/cm^2 hr
Skin Permeation Rate ([1]; post-activation phase (0.0 mA) after 1.0 mA TPIS, pH 5.0, X ± SD): 5.3 (±0.5) ng/cm^2 hr
Enhancement factor ([1]; TPIS 0.5 mA, ionic strength 0.061): 472.8 (±59.0)
Enhancement factor ([1]; TPIS 0.5 mA, ionic strength 0.122): 185.3 (±19.9)
Enhancement factor ([1]; TPIS 0.5 mA, ionic strength 0.244): 76.8 (±6.9)
Enhancement factor ([1]; TPIS 0.5 mA, ionic strength 0.488): 49.9 (±18.0)
urine osmolarity, TPIS vs TIDD ([2]; TPIS 0.22 mA/cm^2, 2 KHz, on/off 1/1, square, 40 min, 40 IU/ml pH 5.0): increases from the basal levels more rapidly and substantially
urine output, TPIS vs TIDD ([2]; TPIS, vasopressin solution pH 5.0): more effective in reducing urine output than TIDD
Skin Permeation Rate ([3]; TPIS 0.5 mA, 2 KHz, on/off 1/1, ionic strength 0.061, ± SD): 632.6 (±65.0) ng/cm^2 /hr
Skin Permeation Rate ([3]; TPIS 0.5 mA, 2 KHz, on/off 1/1, ionic strength 0.244, ± SD): 101.4 (±9.1) ng/cm^2 /hr
Skin Permeation Rate ([3]; passive diffusion, 30 hours): 1.32±0.38 ng/cm^2 /hr
